Series [1] has as its target T1, α2B Human Adrenergic Receptor (Homo sapiens, UniProt P18089).
T1 construct: expressed in transfected cells; host or cells: Y-1 cells
T1 sequence (P18089 1-450): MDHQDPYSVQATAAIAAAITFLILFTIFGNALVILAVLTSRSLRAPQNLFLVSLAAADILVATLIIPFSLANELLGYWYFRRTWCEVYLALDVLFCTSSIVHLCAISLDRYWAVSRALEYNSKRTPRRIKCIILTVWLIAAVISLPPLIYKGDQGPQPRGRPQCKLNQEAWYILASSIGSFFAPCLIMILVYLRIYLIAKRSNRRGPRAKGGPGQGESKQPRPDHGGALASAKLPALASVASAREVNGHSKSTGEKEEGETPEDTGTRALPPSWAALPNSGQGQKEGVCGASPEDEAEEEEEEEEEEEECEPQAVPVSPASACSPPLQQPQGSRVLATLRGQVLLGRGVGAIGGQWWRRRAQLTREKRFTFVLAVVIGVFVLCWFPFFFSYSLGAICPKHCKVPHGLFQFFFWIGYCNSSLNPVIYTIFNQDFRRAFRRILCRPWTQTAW
Type of series: cell-based. As to the method: (§1) Binding and functional assays were performed using stably transfected human alpha adrenergic receptors. Equilibrium competition binding assays were performed with membrane preparations from cultured LM(tk-) cells stably transfected with the cloned human adrenoceptor subtypes except for α2b, which was expressed in Y-1 cells, using [^3H] prazosin for α1 receptors and [^3H] rauwolscine for α2 receptors.
(§2) Stable cell lines were selected as described above.
(§3) The agonist activity (expressed as pEC50) was measured as a function of the ability to inhibit the forskolin-stimulated synthesis of cyclic adenosine monophosphate (cAMP). The stably transfected cells were incubated in Ham's F10 with 5 mM theophylline, 10 mM HEPES, 10 μM pargyline, and/or appropriate concentrations of forskolin for 20 min at 37° C. in 5% CO2. The tested compounds were then added to a final concentration of 0.001 nM to 1 μM and incubated for an additional 15 min at 37° C. in 5% CO2. The medium was aspirated and the reaction was stopped by the addition of 100 mM HCl . […] The plates are stored at 4° C. for 15 min and assayed to determine the linear concentration of cAMP. The appropriate dilution is interpolated from the standard curve of cold cAMP. The assessment of cAMP formation is determined by radioimmunoassay (cAMP radioimmunoassay kit; Advanced Magnetics, Cambridge, Mass.). Radioactivity was quantified using a Packard COBRA Auto Gamma counter, equipped with data reduction software.

For series [2], the target named is T2, α2C Human Adrenergic Receptor (Homo sapiens, UniProt P18825).
T2 sequence (P18825 1-462): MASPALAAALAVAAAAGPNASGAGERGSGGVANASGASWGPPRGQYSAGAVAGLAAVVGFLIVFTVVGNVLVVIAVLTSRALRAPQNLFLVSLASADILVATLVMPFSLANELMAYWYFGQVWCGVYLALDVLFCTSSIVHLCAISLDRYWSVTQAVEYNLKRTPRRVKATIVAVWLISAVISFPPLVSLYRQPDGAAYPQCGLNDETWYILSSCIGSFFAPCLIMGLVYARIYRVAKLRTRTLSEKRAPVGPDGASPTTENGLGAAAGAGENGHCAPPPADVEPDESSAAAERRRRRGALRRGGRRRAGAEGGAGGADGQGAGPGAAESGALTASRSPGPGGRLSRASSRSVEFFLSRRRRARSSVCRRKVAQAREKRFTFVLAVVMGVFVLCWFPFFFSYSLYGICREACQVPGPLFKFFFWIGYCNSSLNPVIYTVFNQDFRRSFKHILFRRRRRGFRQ
Type of series: cell-based. More on the design: The entire coding region of α2C (1383 bp), including 2 bp of 5′ UT and 400 bp of 3′ UT; expressed in transfected cells; host or cells: LM(tk-) cells. The following applies: for I.A Alpha-2 C: functional cAMP assay. As to the method: as §1
The insert housing this coding region was an @ 1.8 kb Ncol/EcoRI human spleen genomic fragment which was end-blunted by either T4 polymerase or Klenow fragment of DNA polymerase. Stable cell lines were selected as described above.
as §3
In general terms: cAMP levels reflect the balance of adenylyl cyclase and phosphodiesterase activity.

Series [3] has as its target T1, α2B Human Adrenergic Receptor. In words: Equilibrium competition binding, [3H] rauwolscine, membranes of transfected Y-1 cells. As to the method: as §1, §2
(§4) Transfected cells from culture flasks were scraped into 5 ml of 5 mM Tris-HCl, 5 mM EDTA, pH 7.5, and lysed by sonication. The cell lysates were centrifuged at 1000 rpm for 5 min at 4° C., and the supernatant was centrifuged at 30,000×g for 20 min at 4° C. The pellet was suspended in 50 mM Tris-HCl, 1 mM MgCl2, and 0.1% ascorbic acid at pH 7.5. Binding of α2 antagonist [^3H] rauwolscine ([…]) to membrane preparations of LM(tk-) cells was done in a final volume of 0.25 ml and incubated at 37° C. for 20 min. Nonspecific binding was determined in the presence of 10 μM phentolamine. The reaction was stopped by filtration through GF/B filters using a cell harvester.

In series [4] the target is T2, α2C Human Adrenergic Receptor. Briefly: Equilibrium competition binding, [3H] rauwolscine, membranes of transfected LM(tk-) cells.
The target in series [5] is T3, α1B Human Adrenergic Receptor (Homo sapiens, UniProt P35368).
T3 construct: The entire coding region of α1B(1563 bp); expressed in transfected cells; host or cells: LM(tk-) cells
T3 sequence (P35368 1-520): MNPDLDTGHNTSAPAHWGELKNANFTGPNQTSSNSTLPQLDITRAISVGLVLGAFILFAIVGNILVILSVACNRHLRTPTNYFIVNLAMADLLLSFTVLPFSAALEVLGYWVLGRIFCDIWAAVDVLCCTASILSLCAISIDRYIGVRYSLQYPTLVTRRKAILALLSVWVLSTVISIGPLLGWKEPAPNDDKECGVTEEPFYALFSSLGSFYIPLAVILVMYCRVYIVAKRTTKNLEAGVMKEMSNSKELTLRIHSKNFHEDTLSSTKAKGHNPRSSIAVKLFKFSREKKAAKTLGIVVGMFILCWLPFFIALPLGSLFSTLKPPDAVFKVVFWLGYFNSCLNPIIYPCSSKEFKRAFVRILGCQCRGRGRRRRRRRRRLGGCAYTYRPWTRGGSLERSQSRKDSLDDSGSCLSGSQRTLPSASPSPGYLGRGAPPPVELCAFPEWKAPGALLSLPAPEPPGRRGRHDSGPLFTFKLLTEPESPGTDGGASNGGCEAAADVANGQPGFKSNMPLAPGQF
In words: Equilibrium competition binding, [3H] prazosin, membranes of transfected LM(tk-) cells. The following applies: cloned human receptor, [3H] prazosin. As to the method: as §1, §4
The construct involved ligating the full-length containing EcoRI brainstem cDNA fragment from ZapII into the expression vector. The stable cell lines were selected as described above.

Series [6] concerns the target T4, α1A Human Adrenergic Receptor (Homo sapiens, UniProt P25100).
T4 construct: expressed in transfected cells; host or cells: LM(tk-) cells
T4 sequence (P25100 1-572): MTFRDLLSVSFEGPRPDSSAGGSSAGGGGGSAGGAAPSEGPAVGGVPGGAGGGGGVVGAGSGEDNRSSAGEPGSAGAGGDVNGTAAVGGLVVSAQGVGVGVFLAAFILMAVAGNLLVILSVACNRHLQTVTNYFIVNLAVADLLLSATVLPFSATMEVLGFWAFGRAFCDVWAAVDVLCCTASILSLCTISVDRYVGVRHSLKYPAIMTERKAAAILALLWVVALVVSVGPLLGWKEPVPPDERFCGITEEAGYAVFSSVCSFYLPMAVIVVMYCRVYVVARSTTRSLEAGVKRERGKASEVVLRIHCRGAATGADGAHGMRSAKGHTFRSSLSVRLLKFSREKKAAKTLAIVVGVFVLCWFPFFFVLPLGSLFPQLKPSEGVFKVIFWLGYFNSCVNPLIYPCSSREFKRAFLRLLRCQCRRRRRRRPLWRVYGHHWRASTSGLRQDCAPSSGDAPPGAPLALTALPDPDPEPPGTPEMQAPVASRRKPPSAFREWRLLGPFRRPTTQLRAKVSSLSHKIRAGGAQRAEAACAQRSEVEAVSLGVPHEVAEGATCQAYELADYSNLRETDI
The series is described as above. As to the method:
as §1, §4, §2

The mark [7] stands for this setting: cloned human receptor, [3H] rauwolscine, read-out: pKi Alpha-2 B (converted).
Setting [8] is: inhibition of forskolin-stimulated cAMP, NA: Not Active, read-out: pEC50 Alpha-2 C (converted).

In general, melting point refers to the temperature, or range, at which the solid turns liquid.

Structures are written as SMILES. Counter-ions that a name gives are not always drawn. Like-named read-outs stand apart in the source and are kept apart here.

For the compound `Brc1c(NC2=NCCN2)ccc2c1ncn2CC1CCCCC1` (as salt: fumarate) [Example 30, 1-Cyclohexylmethyl-4-bromo-5-(2-imidazolin-2-ylamino)Benzimidazole], the melting point lay in the range of 193 to 195 °C.
Consider `CCc1c(NC2=NCCN2)ccc2nc[nH]c12` [Example 6, 4-Ethyl-5-(2-imidazolin-2-ylamino)Benzimidazole], for which the EC50 was 0.0224 µM in series [1] and 0.00398 µM in series [2]. The “I.A Alpha-2 B” value in series [1] is listed as 1.00. For the same compound, in series [2], the “I.A Alpha-2 C” value is on record as 1.00. Besides, the Ki is 0.0224 µM in series [3] and 0.0479 µM in series [4].
Compound `CCCCc1c(NC2=NCCN2)ccc2nc[nH]c12` (as salt: fumarate) [Example 8, 4-n-Butyl-5-(2-imidazolin-2-ylamino)Benzimidazole] returned a melting point of 96 °C.
Still for that read-out and setting: to `CCc1c(NC2=NCCN2)ccc2nc[nH]c12` (as salt: fumarate) [Example 6, 4-Ethyl-5-(2-imidazolin-2-ylamino)Benzimidazole] belongs 238 to 239 °C.
As for `CCCn1cnc2cc(NC3=NCCN3)ccc21` [Example 13, 1-Propyl-5-(2-imidazolin-2-ylamino)Benzimidazole], the Ki was 93.3 µM in series [5] (read-out: pKi Alpha-1 B (converted)), 10.5 µM in series [6], 0.363 µM in series [3] and 0.398 µM in series [4].
Regarding `Brc1c(NC2=NCCN2)ccc2nc(C3CC3)[nH]c12` [Example 47, 2-Cyclopropyl-4-bromo-5-(2-imidazolin-2-ylamino)Benzimidazole], the EC50 in series [1] is 0.115 µM; in series [2], 0.0457 µM. The Ki was 0.0447 µM in series [3] and 0.224 µM in series [4].
`Cc1cc(NC2=NCCN2)cc2[nH]cnc12` [Example 52, 7-Methyl-5-(2-imidazolin-2-ylamino)Benzimidazole]: in series [1], the EC50 was 0.0724 µM and the “I.A Alpha-2 B” value was 0.80. In series [2], the “I.A Alpha-2 C” value was 1.00. This compound also gave a Ki in series [3] of 0.0776 µM.
Take `Brc1cc(NC2=NCCN2)cc2[nH]cnc12` [Example 51, 7-Bromo-5-(2-imidazolin-2-ylamino)Benzimidazole]: in series [1], the EC50 was 0.0891 µM and the “I.A Alpha-2 B” value is 0.60. In addition, in series [2], the EC50 was 0.00427 µM and the “I.A Alpha-2 C” value was found to be 1.00. This compound gave a Ki in series [3] of 0.0275 µM. The Ki in series [4] is 0.123 µM.
Consider `Cc1cc2nc[nH]c2cc1NC1=NCCN1` [Example 49, 6-Methyl-5-(2-imidazolin-2-ylamino)Benzimidazole], for which the “I.A Alpha-2 C” value in series [2] is 1.00. The compound further showed a Ki in series [3] of 0.0363 µM.
As for `Brc1c(NC2=NCCN2)ccc2c1ncn2CC1CCCCC1` [Example 30, 1-Cyclohexylmethyl-4-bromo-5-(2-imidazolin-2-ylamino)Benzimidazole], the Ki is 0.166 µM in series [3] (setting [7]) and 0.309 µM in series [4].
`Clc1cccc(Cl)c1N=C1NCCN1` [Clonidine, reference compound]: the “pKi Alpha-1 B” value in series [5] is recorded as 5.62. Moreover, in series [6] (cloned human receptor, [3H] prazosin, read-out: pKi Alpha-1 A (converted)), the Ki was 0.513 µM.
As for `CCc1cc(NC2=NCCN2)cc2[nH]cnc12` [Example 55, 7-Ethyl-5-(2-imidazolin-2-ylamino)Benzimidazole], the “I.A Alpha-2 C” value in series [2] stood at 0.80. Moreover, the EC50 in series [2] (setting [8]) was 0.162 µM. In addition, the values for the Ki in series [3] and in series [4] were 0.209 µM and 0.427 µM, respectively.
As for `c1ccc(-c2cc(NC3=NCCN3)cc3[nH]cnc23)cc1` [Example 57, 7-Phenyl-5-(2-imidazolin-2-ylamino)Benzimidazole], the “I.A Alpha-2 B” value in series [1] (functional cAMP assay) stood at 1.00. The EC50 was 8.51 µM in series [1] (inhibition of forskolin-stimulated cAMP, NA: Not Active, read-out: pEC50 Alpha-2 B (converted)) and 0.0151 µM in series [2] (setting [8]). Further, the values for the Ki in series [3] (setting [7]) and in series [4] were 0.0603 µM and 0.135 µM, respectively.
For the compound `CC(C)n1cnc2c(I)c(NC3=NCCN3)ccc21` [Example 19, 1-lsopropyl-4-Iodo-5-(2-imidazolin-2-ylamino)Benzimidazole], the Ki in series [3] (setting [7]) was 0.214 µM; in series [4], 0.129 µM.
For the compound `COc1cccc(Cn2cnc3c(Br)c(NC4=NCCN4)ccc32)c1` [Example 37, 1-(3-Methoxybenzyl)-4-bromo-5-(2-imidazolin-2-ylamino)Benzimidazole], the “I.A Alpha-2 C” value in series [2] is reported as 0.50. Moreover, the EC50 in series [2] (setting [8]) was 0.0525 µM. Moreover, the Ki was 0.0813 µM in series [3] (setting [7]) and 0.117 µM in series [4].
